Laboratory results reported in ChEMBL document CHEMBL2424566, “Preparation of betulinic acid derivatives by chemical and biotransformation methods and determination of cytotoxicity against selected cancer cell lines” (Eur J Med Chem, 2013).
Activity calls are given as the source filed them. The rule behind the calls is not given here.

Legend:
[1] = system: A549; test: Cytotoxicity against human A549 cells assessed as cell viability after 96 hrs by SRB assay; assay type: functional, cell-based; details: A549, 96 h
[2] = system: MCF7; test: Cytotoxicity against human MCF7 cells assessed as cell viability after 96 hrs by SRB assay; assay type: functional, cell-based; details: MCF7, 96 h
[3] = Cytotoxicity against human 518A2 cells assessed as cell viability after 96 hrs by SRB assay; assay type: functional, cell-based; details: 518A2, 96 h
[4] = system: 8505C; test: Cytotoxicity against human 8505C cells assessed as cell viability after 96 hrs by SRB assay; assay type: functional, cell-based
[5] = system: A2780; test: Cytotoxicity against human A2780 cells assessed as cell viability after 96 hrs by SRB assay; assay type: functional, cell-based; details: A2780, 96 h
[6] = system: A549; test: Induction of apoptosis in human A549 cells assessed as early apoptosis and secondary necrosis at IC80 after 48 hrs by annexin V-FITC staining-based flow cytometric analysis relative to control; assay type: functional
[7] = system: A549; test: Induction of apoptosis in human A549 cells assessed as early apoptosis and secondary necrosis at IC80 after 24 hrs by annexin V-FITC staining-based flow cytometric analysis relative to control; assay type: functional
[8] = system: A549; test: Induction of apoptosis in human A549 cells assessed as occurrence of typical DNA ladders at IC80 after 72 hrs by agarose gel electrophoresis; assay type: functional, cell-based
[9] = system: A549; test: Induction of apoptosis in human A549 cells assessed as apoptotic bodies at IC80 after 24 hrs by acridine orange/ethidium bromide staining-based fluorescence microscopic analysis; assay type: functional, cell-based
[10] = system: A549; test: Induction of apoptosis in human A549 cells assessed as membrane blebbing at IC80 after 24 hrs by acridine orange/ethidium bromide staining-based fluorescence microscopic analysis; assay type: functional, cell-based
[11] = system: A549; test: Induction of apoptosis in human A549 cells assessed as DNA fragmentation at IC80 after 24 hrs by acridine orange/ethidium bromide staining-based fluorescence microscopic analysis; assay type: functional, cell-based
[12] = system: A549; test: Induction of apoptosis in human A549 cells assessed as chromatin condensation at IC80 after 24 hrs by acridine orange/ethidium bromide staining-based fluorescence microscopic analysis; assay type: functional, cell-based
[13] = system: A549; test: Cell cycle arrest in human A549 cells assessed as accumulation at G2/M phase at IC80 by propidium iodide staining-based flow cytometric analysis; assay type: functional; details: TDE = time-dependent effect
[14] = system: A549; test: Cell cycle arrest in human A549 cells assessed as accumulation at S phase at IC80 by propidium iodide staining-based flow cytometric analysis; assay type: functional; details: TDE = time-dependent effect
[15] = system: A549; test: Cell cycle arrest in human A549 cells assessed as accumulation at G0/G1 phase at IC80 by propidium iodide staining-based flow cytometric analysis; assay type: functional; details: TDE = time-dependent effect
[16] = system: A549; test: Cell cycle arrest in human A549 cells assessed as accumulation at subG1 phase at IC80 by propidium iodide staining-based flow cytometric analysis; assay type: functional; details: TDE = time-dependent effect
[17] = system: A549; test: Cell cycle arrest in human A549 cells assessed as accumulation at G2/M phase at IC80 after 48 hrs by propidium iodide staining-based flow cytometric analysis (26 +/- 1.1%); assay type: functional
[18] = system: A549; test: Cell cycle arrest in human A549 cells assessed as accumulation at S phase at IC80 after 48 hrs by propidium iodide staining-based flow cytometric analysis (19.1 +/- 1.05%); assay type: functional
[19] = system: A549; test: Cell cycle arrest in human A549 cells assessed as accumulation at G0/G1 phase at IC80 after 48 hrs by propidium iodide staining-based flow cytometric analysis (48.5 +/- 1.82%); assay type: functional
[20] = system: A549; test: Cell cycle arrest in human A549 cells assessed as accumulation at subG1 phase at IC80 after 48 hrs by propidium iodide staining-based flow cytometric analysis (3.23 +/- 0.25%); assay type: functional
[21] = system: A549; test: Cell cycle arrest in human A549 cells assessed as accumulation at G2/M phase at IC80 after 24 hrs by propidium iodide staining-based flow cytometric analysis (24.9 +/- 1.46%); assay type: functional
[22] = system: A549; test: Cell cycle arrest in human A549 cells assessed as accumulation at S phase at IC80 after 24 hrs by propidium iodide staining-based flow cytometric analysis (20.2 +/- 0.81%); assay type: functional
[23] = system: A549; test: Cell cycle arrest in human A549 cells assessed as accumulation at G0/G1 phase at IC80 after 24 hrs by propidium iodide staining-based flow cytometric analysis (49.5 +/- 2.51%); assay type: functional
[24] = system: A549; test: Cell cycle arrest in human A549 cells assessed as accumulation at subG1 phase at IC80 after 24 hrs by propidium iodide staining-based flow cytometric analysis (2.73 +/- 0.49%); assay type: functional
[25] = system: A549; test: Selectivity index, ratio of IC50 for human CCD-18Co cells to IC50 for human A549 cells; assay type: functional
[26] = system: MCF7; test: Selectivity index, ratio of IC50 for human CCD-18Co cells to IC50 for human MCF7 cells; assay type: functional
[27] = Selectivity index, ratio of IC50 for human CCD-18Co cells to IC50 for human 518A2 cells; assay type: functional
[28] = Selectivity index, ratio of IC50 for human CCD-18Co cells to IC50 for human 8505C cells; assay type: functional, 8505C;CCD-18Co
[29] = system: A2780; test: Selectivity index, ratio of IC50 for human CCD-18Co cells to IC50 for human A2780 cells; assay type: functional
[30] = Cytotoxicity against human CCD-18Co cells assessed as cell viability after 96 hrs by SRB assay; assay type: cell-based

Compound	IC50 [1]	IC50 [2]	IC50 [3]	IC50 [4]	IC50 [5]	Activity [9]	Activity [10]	Activity [11]	Activity [12]	IC50 [30]	further results
C/C(=N\Nc1ccc([N+](=O)[O-])cc1[N+](=O)[O-])[C@@H]1CC[C@]2(C(=O)O)CC[C@]3(C)[C@H](CC[C@@H]4[C@@]5(C)CC/C(=N\Nc6ccc([N+](=O)[O-])cc6[N+](=O)[O-])C(C)(C)[C@@H]5CC[C@]43C)[C@@H]12	> 100 µM	60.2 µM	> 100 µM	> 100 µM	53.8 µM	–	–	–	–	–	–
C[C@@H](C=O)[C@@H]1CC[C@]2(C(=O)O)CC[C@]3(C)[C@H](CC[C@@H]4[C@@]5(C)CCC(O)C(C)(C)[C@@H]5CC[C@]43C)[C@@H]12 (stereo partly specified)	46.9 µM	44.4 µM	52.9 µM	55.2 µM	50.3 µM	–	–	–	–	–	–
C=C(C)[C@@H]1CC[C@]2(C(=O)OC)CC[C@]3(C)[C@H](CC[C@@H]4[C@@]5(C)CC/C(=N\Nc6ccc([N+](=O)[O-])cc6[N+](=O)[O-])C(C)(C)[C@@H]5CC[C@]43C)[C@@H]12	> 100 µM	> 100 µM	> 100 µM	> 100 µM	> 100 µM	–	–	–	–	–	–
C[C@@H](C=O)[C@@H]1CC[C@]2(C(=O)O)CC[C@]3(C)[C@H](CC[C@@H]4[C@@]5(C)CC/C(=N\Nc6ccc([N+](=O)[O-])cc6[N+](=O)[O-])C(C)(C)[C@@H]5CC[C@]43C)[C@@H]12	1.79 µM	2.51 µM	1.91 µM	2.44 µM	1.76 µM	Active	Active	Active	Active	8.3 µM	Activity [6]: 8%; Activity [7]: 12%; Activity [8]: Active; Activity [13]: tde; Activity [14]: tde; Activity [15]: tde; Activity [16]: tde; Activity [17]: 15.9%; Activity [18]: 14.6%; Activity [19]: 49.7%; Activity [20]: 18.3%; Activity [21]: 13.9%; Activity [22]: 14.8%; Activity [23]: 60.9%; Activity [24]: 8.77%; Ratio IC50 [25]: 3; Ratio IC50 [26]: 3; Ratio IC50 [27]: 3; Ratio IC50 [28]: 3; Ratio IC50 [29]: 3
CC(=O)[C@@H]1CC[C@]2(C(=O)O)CC[C@]3(C)[C@H](CC[C@@H]4[C@@]5(C)CCC(=O)C(C)(C)[C@@H]5CC[C@]43C)[C@@H]12	59.1 µM	47.1 µM	43.5 µM	64.1 µM	16.1 µM	–	–	–	–	–	–
CC(=O)[C@@H]1CC[C@]2(C(=O)O)CC[C@]3(C)[C@H](CC[C@@H]4[C@@]5(C)CC[C@H](O)C(C)(C)[C@@H]5CC[C@]43C)[C@@H]12 [PLATANIC ACID]	75.4 µM	63.2 µM	97.5 µM	93.6 µM	68 µM	–	–	–	–	–	–
CC(=O)[C@@H]1CC[C@]2(C(=O)O)CC[C@]3(C)[C@H](CC[C@@H]4[C@@]5(C)CC/C(=N\Nc6ccc([N+](=O)[O-])cc6[N+](=O)[O-])C(C)(C)[C@@H]5CC[C@]43C)[C@@H]12	12.1 µM	7.52 µM	14.6 µM	16.9 µM	9.1 µM	Active	Active	Active	Active	43.5 µM	–
C[C@H](C=O)[C@@H]1CC[C@]2(C(=O)O)CC[C@]3(C)[C@H](CC[C@@H]4[C@@]5(C)CC/C(=N\Nc6ccc([N+](=O)[O-])cc6[N+](=O)[O-])C(C)(C)[C@@H]5CC[C@]43C)[C@@H]12	2 µM	2.41 µM	1.76 µM	2.17 µM	1.81 µM	–	–	–	–	–	–
C=C(C)[C@@H]1CC[C@]2(C(=O)O)CC[C@]3(C)[C@H](CC[C@@H]4[C@@]5(C)CC[C@H](O)C(C)(C)[C@@H]5CC[C@]43C)[C@@H]12 [BETULINIC ACID]	13.3 µM	14 µM	14.8 µM	12.6 µM	8.75 µM	Active	Active	Active	Active	43.6 µM	Activity [6]: >50%; Activity [7]: 32%; Activity [13]: tde; Activity [14]: tde; Activity [15]: tde; Activity [16]: tde; Activity [17]: 0.17%; Activity [18]: 0.33%; Activity [19]: 0.96%; Activity [20]: 98.5%; Activity [21]: 20.1%; Activity [22]: 20.1%; Activity [23]: 36.7%; Activity [24]: 18.8%
C=C(C)[C@@H]1CC[C@]2(C(=O)OC)CC[C@]3(C)[C@H](CC[C@@H]4[C@@]5(C)CC[C@H](O)C(C)(C)[C@@H]5CC[C@]43C)[C@@H]12 [METHYL BETULINATE]	17.2 µM	16.9 µM	16.9 µM	17.2 µM	16.3 µM	–	–	–	–	–	–
C=C(C)[C@@H]1CC[C@]2(C(=O)OC)CC[C@]3(C)[C@H](CC[C@@H]4[C@@]5(C)CCC(=O)C(C)(C)[C@@H]5CC[C@]43C)[C@@H]12 [METHYL BETULONATE]	> 100 µM	98.1 µM	68 µM	> 100 µM	36.2 µM	–	–	–	–	–	–
C=C(C)[C@@H]1CC[C@]2(C(=O)O)CC[C@]3(C)[C@H](CC[C@@H]4[C@@]5(C)CC/C(=N\Nc6ccc([N+](=O)[O-])cc6[N+](=O)[O-])C(C)(C)[C@@H]5CC[C@]43C)[C@@H]12	21.4 µM	8.17 µM	13.5 µM	25.9 µM	6.22 µM	Active	Active	Active	Active	18.1 µM	Ratio IC50 [26]: 1; Ratio IC50 [27]: 1; Ratio IC50 [29]: 1
C=C(C)[C@@H]1CC[C@]2(C(=O)OCc3ccccc3)CC[C@]3(C)[C@H](CC[C@@H]4[C@@]5(C)CC/C(=N\Nc6ccc([N+](=O)[O-])cc6[N+](=O)[O-])C(C)(C)[C@@H]5CC[C@]43C)[C@@H]12	> 100 µM	> 100 µM	> 100 µM	> 100 µM	66.7 µM	–	–	–	–	–	–
C/C(=N/O)[C@@H]1CC[C@]2(C(=O)O)CC[C@]3(C)[C@H](CC[C@@H]4[C@@]5(C)CC[C@H](O)C(C)(C)[C@@H]5CC[C@]43C)[C@@H]12	53.7 µM	52.2 µM	63.2 µM	55.9 µM	54.4 µM	–	–	–	–	–	–
C=C(C)[C@@H]1CC[C@]2(C(=O)O)CC[C@]3(C)[C@H](CC[C@@H]4[C@@]5(C)CCC(=O)C(C)(C)[C@@H]5CC[C@]43C)[C@@H]12 [BETUNOLIC ACID]	10.4 µM	–	12.9 µM	14 µM	5.97 µM	–	–	–	–	–	–
C/C(=N\Nc1ccc([N+](=O)[O-])cc1[N+](=O)[O-])[C@@H]1CC[C@]2(C(=O)O)CC[C@]3(C)[C@H](CC[C@@H]4[C@@]5(C)CC[C@H](O)C(C)(C)[C@@H]5CC[C@]43C)[C@@H]12	7.62 µM	6.84 µM	9.09 µM	8.72 µM	11.3 µM	Active	Active	Active	Active	56.7 µM	Ratio IC50 [25]: 5; Ratio IC50 [26]: 5; Ratio IC50 [27]: 5; Ratio IC50 [28]: 5; Ratio IC50 [29]: 5
